Laboratory results: PMC7527219 (Science Advances, 2020)
“Also recorded” adds a separate entry of the source. Peptide text beside a SMILES is read from it.

Columns and labels:
[1] = b7: ref [9], [10]; b55: ref [10]; cited from earlier work
[2] = target: PmtCD PSM transporter (C2D2 heterotetramer) (S. aureus); test: MST

| Molecule | cytotoxicity (in words) [1] | stoichiometry N [2] |
| --- | --- | --- |
| CSCC[C@H](NC=O)C(=O)N[C@@H](CCC(=O)O)C(=O)N[C@@H](C)C(=O)N[C@H](C(=O)N[C@@H](C)C(=O)N[C@@H](CCCCN)C(=O)N[C@@H](CC(C)C)C(=O)N[C@@H](Cc1ccccc1)C(=O)N[C@@H](CCCCN)C(=O)N[C@@H](Cc1ccccc1)C(=O)N[C@@H](Cc1ccccc1)C(=O)N[C@@H](CCCCN)C(=O)N[C@@H](CC(=O)O)C(=O)N[C@@H](CC(C)C)C(=O)N[C@@H](CC(C)C)C(=O)NCC(=O)N[C@@H](CCCCN)C(=O)N[C@@H](Cc1ccccc1)C(=O)N[C@@H](CC(C)C)C(=O)NCC(=O)N[C@@H](CC(N)=O)C(=O)N[C@@H](CC(N)=O)C(=O)O)C(C)C [PSMα3F3A] (HELM PEPTIDE1{[O=C[*:2]].M.E.A.V.A.K.L.F.K.F.F.K.D.L.L.G.K.F.L.G.N.N}$$$$V2.0) | cytotoxic; also recorded: maintains cytotoxicity | – |
| PSMα3F3A peptide | – | > 2 |
